Earlier results, collected in patent US20250353815A1, “AMINO ACID HAVING FLUORINE AT a-POSITION, AND DERIVATIVE OF SAME” (SynCrest Inc., priority 2022, published 2025).

Key:
[1] = target: DNA methyltransferase; conditions: inhibition of DNA methyltransferase
[2] = system: DNA methyltransferase
[3] = system: human somatic cells
[4] = system: mouse somatic cells

## O=C(O)[C@H](Cc1c[nH]c2ccccc12)N1C(=O)c2ccccc2C1=O [RG-108, N-phthalyl-L-tryptophan]
[1]
  IC50: 115 nM
[2]
  binding to the active site of the enzyme in molecular modeling: bind directly to the active site of the enzyme
[3]
  reprogramming of somatic cells into iPS cells: promotes the reprogramming
[4]
  reprogramming of somatic cells into iPS cells: promotes the reprogramming
